PubChem BioAssay (NCI)
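1) Cells in 96-well plates. 2) Compound, 48 h, 5 concentrations. 3) Linear interpolation between surrounding doses. 4) Unreached endpoint = highest concentration. At the GI50, growth is halved. TGI: total growth inhibition.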

Experiments:
Test in all cases: growth of human tumour cells (NCI), 48 h
[1] = system: PC-3 prostate
[2] = system: SK-MEL-5 melanoma
[3] = system: A549 NSCLC
[4] = system: COLO 205 colon
[5] = system: DU-145 prostate
[6] = system: SNB-75 CNS
[7] = system: OVCAR-5 ovarian
[8] = system: K-562 leukemia
[9] = system: CCRF-CEM leukemia
[10] = system: MCF7 breast
[11] = system: SK-OV-3 ovarian
[12] = system: M14 melanoma
[13] = system: MOLT-4 leukemia
[14] = system: SN12C renal
[15] = system: U251 CNS
[16] = system: SW-620 colon
[17] = system: HCT-116 colon
[18] = system: MDA-MB-435
[19] = system: KM12 colon
[20] = system: NCI-H460 lung
[21] = system: UO-31 renal
[22] = system: HOP-62 NSCLC
[23] = system: HCC-2998 colon
[24] = system: RPMI-8226 leukemia
[25] = system: TK-10 renal
[26] = system: NCI-H522 lung
[27] = system: SF-539 CNS
[28] = system: SK-MEL-2 melanoma
[29] = system: T-47D breast
[30] = system: OVCAR-4 ovarian
[31] = system: OVCAR-8 ovarian
[32] = system: NCI/ADR-RES ovarian
[33] = system: A498 renal
[34] = system: RXF 393 renal
[35] = system: MALME-3M melanoma
[36] = system: IGROV1 ovarian
[37] = system: MDA-MB-231 breast
[38] = system: SNB-19 CNS
[39] = system: EKVX NSCLC
[40] = system: SR leukemia
[41] = system: UACC-62 melanoma
[42] = system: LOX IMVI melanoma
[43] = system: HOP-92 NSCLC
[44] = system: UACC-257 melanoma
[45] = system: SF-268 CNS
[46] = system: HL-60(TB) leukemia

COc1ccc(/C=C/C(=O)/C=C(/C=C/c2ccc(OC)c(OC)c2OC)OB(F)F)c(OC)c1OC
GI50 [1]: 2.82 µM | TGI [1]: > 100 µM | GI50 [2]: 1.77 µM | TGI [2]: 3.91 µM | GI50 [3]: 3.44 µM | TGI [3]: > 100 µM | GI50 [4]: 1.94 µM | TGI [4]: 6.84 µM | GI50 [5]: 3.13 µM | TGI [5]: > 100 µM | GI50 [6]: 4.84 µM | TGI [6]: > 100 µM | GI50 [7]: 3.3 µM | TGI [7]: > 100 µM | GI50 [8]: 1.28 µM | TGI [8]: > 100 µM | GI50 [9]: 0.366 µM | TGI [9]: 2.08 µM | GI50 [10]: 0.502 µM | TGI [10]: > 100 µM | GI50 [11]: 3.77 µM | TGI [11]: > 100 µM | GI50 [12]: 2.74 µM | TGI [12]: > 100 µM | GI50 [13]: 0.425 µM | TGI [13]: 4.74 µM | GI50 [14]: 2.01 µM | TGI [14]: > 100 µM | GI50 [15]: 0.973 µM | TGI [15]: 8.09 µM | GI50 [16]: 0.58 µM | TGI [16]: 4.34 µM | GI50 [17]: 0.399 µM | TGI [17]: 3.33 µM | GI50 [18]: 2.15 µM | TGI [18]: > 100 µM | GI50 [19]: 2.09 µM | TGI [19]: 5.08 µM | GI50 [20]: 1.66 µM | TGI [20]: 3.52 µM | GI50 [21]: 0.96 µM | TGI [21]: 3.65 µM | GI50 [22]: 3.89 µM | TGI [22]: > 100 µM | GI50 [23]: 1.94 µM | TGI [23]: 3.93 µM | GI50 [24]: 0.466 µM | TGI [24]: 2.77 µM | GI50 [25]: 9.03 µM | TGI [25]: > 100 µM | GI50 [26]: 1.35 µM | TGI [26]: 4.62 µM | GI50 [27]: 3.11 µM | TGI [27]: > 100 µM | GI50 [28]: 2.36 µM | TGI [28]: 8.09 µM | GI50 [29]: 3.62 µM | TGI [29]: > 100 µM | GI50 [30]: 5.09 µM | TGI [30]: > 100 µM | GI50 [31]: 1.16 µM | TGI [31]: > 100 µM | GI50 [32]: 3.28 µM | TGI [32]: > 100 µM | GI50 [33]: 3.35 µM | TGI [33]: 10.2 µM | GI50 [34]: 1.35 µM | TGI [34]: 2.92 µM | GI50 [35]: 3.02 µM | TGI [35]: 62.4 µM | GI50 [36]: 1.89 µM | TGI [36]: > 100 µM | GI50 [37]: 3.1 µM | TGI [37]: > 100 µM | GI50 [38]: 2.35 µM | TGI [38]: > 100 µM | GI50 [39]: 2.96 µM | TGI [39]: > 100 µM | GI50 [40]: 0.278 µM | TGI [40]: > 100 µM | GI50 [41]: 1.47 µM | TGI [41]: 4.69 µM | GI50 [42]: 0.721 µM | TGI [42]: 2.4 µM | GI50 [43]: 7.46 µM | TGI [43]: > 100 µM | GI50 [44]: 9.33 µM | TGI [44]: > 100 µM | GI50 [45]: 2.93 µM | TGI [45]: > 100 µM | GI50 [46]: 0.469 µM | TGI [46]: 3.96 µM
